# Reference: ChEMBL document CHEMBL1201862, “PubChem BioAssay data set” (2004)
#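 48-hour exposure; five concentrations; linearly interpolated endpoints. GI50 is the concentration that inhibits growth by half.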 Activity calls are given as the source filed them. Cut-off read from the data, not from the text of the source: active = GI50 up to about 1.1 µM and inactive = higher.
# Assays:
# Assay in all cases: NCI anticancer screen, dose series, 48 h
# UACC-257 = test system: UACC-257
# EKVX = test system: EKVX
# LXFL 529 = test system: LXFL 529
# DMS-114 = test system: DMS-114
# NCI-H522 = test system: NCI-H522
# CCRF-CEM = test system: CCRF-CEM
# HL-60 = test system: HL-60
# SN12C = test system: SN12C
# HCT-116 = test system: HCT-116
# KM12 = test system: KM12
# RXF 393 = test system: RXF 393
# TK-10 = test system: TK-10
# SF-539 = test system: SF-539
# HCT-15 = test system: HCT-15
# RPMI-8226 = test system: RPMI-8226
# LOX IMVI = test system: LOX IMVI
# 786-0 = test system: 786-0
# HT-29 = test system: HT-29
# U-251 = test system: U-251
# DLD-1 = test system: DLD-1
# COLO 205 = test system: COLO 205
# SK-MEL-28 = test system: SK-MEL-28
# UO-31 = test system: UO-31
# M19-MEL = test system: M19-MEL
# SW-620 = test system: SW-620
# HOP-62 = test system: HOP-62
# IGROV-1 = test system: IGROV-1
# SNB-78 = test system: SNB-78
# OVCAR-8 = test system: OVCAR-8
# UACC-62 = test system: UACC-62
# DMS-273 = test system: DMS-273
# OVCAR-3 = test system: OVCAR-3
# A549 = test system: A549
# MOLT-4 = test system: MOLT-4
# OVCAR-5 = test system: OVCAR-5
# K562 = test system: K562
# Malme-3M = test system: Malme-3M
# SR = test system: SR
# SK-MEL-2 = test system: SK-MEL-2
# M14 = test system: M14
# OVCAR-4 = test system: OVCAR-4
# KM-20L2 = test system: KM-20L2
# A498 = test system: A498
# SNB-75 = test system: SNB-75
# SK-MEL-5 = test system: SK-MEL-5
# HOP-18 = test system: HOP-18
# SF-268 = test system: SF-268
# ACHN = test system: ACHN
# NCI-H460 = test system: NCI-H460
# SF-295 = test system: SF-295
# SNB-19 = test system: SNB-19
# NCI-H23 = test system: NCI-H23
# HOP-92 = test system: HOP-92
# SK-OV-3 = test system: SK-OV-3
# NCI-H226 = test system: NCI-H226
# XF498 = test system: XF498
# HCC 2998 = test system: HCC 2998
# CAKI-1 = test system: CAKI-1
structure (smiles),measurement,setting,value
O=C1/C(=C/c2ccccc2)CN(C(=O)C(F)(F)F)C/C1=C\c1ccccc1,GI50,UACC-257,1.66 µM (inactive)
same,GI50,EKVX,> 10 µM (inactive)
same,GI50,LXFL 529,1.66 µM (inactive)
same,GI50,DMS-114,1.64 µM (inactive)
same,GI50,NCI-H522,2.74 µM (inactive)
same,GI50,CCRF-CEM,1.54 µM (inactive)
same,GI50,HL-60,0.733 µM (active)
same,GI50,SN12C,1.7 µM (inactive)
same,GI50,HCT-116,0.333 µM (active)
same,GI50,KM12,1.54 µM (inactive)
same,GI50,RXF 393,1.84 µM (inactive)
same,GI50,TK-10,3.61 µM (inactive)
same,GI50,SF-539,1.86 µM (inactive)
same,GI50,HCT-15,2.03 µM
same,GI50,RPMI-8226,0.165 µM (active)
same,GI50,LOX IMVI,1.22 µM (inactive)
same,GI50,786-0,1.68 µM (inactive)
same,GI50,HT-29,1.3 µM (inactive)
same,GI50,U-251,1.57 µM (inactive)
same,GI50,DLD-1,2.07 µM (inactive)
same,GI50,COLO 205,2.42 µM (inactive)
same,GI50,SK-MEL-28,1.83 µM (inactive)
same,GI50,UO-31,2.18 µM (inactive)
same,GI50,M19-MEL,1.61 µM (inactive)
same,GI50,SW-620,0.48 µM (active)
same,GI50,HOP-62,11.5 µM (inactive)
same,GI50,IGROV-1,2.29 µM (inactive)
same,GI50,SNB-78,2.2 µM (inactive)
same,GI50,OVCAR-8,1.64 µM (inactive)
same,GI50,UACC-62,1.84 µM (inactive)
same,GI50,DMS-273,1.44 µM (inactive)
same,GI50,OVCAR-3,3.25 µM (inactive)
same,GI50,A549,3.17 µM (inactive)
same,GI50,MOLT-4,3.06 µM (inactive)
same,GI50,OVCAR-5,3.46 µM (inactive)
same,GI50,K562,0.467 µM (active)
same,GI50,Malme-3M,3.72 µM (inactive)
same,GI50,SR,2.02 µM (inactive)
same,GI50,SK-MEL-2,7.98 µM (inactive)
same,GI50,M14,1.61 µM (inactive)
same,GI50,OVCAR-4,2.44 µM (inactive)
same,GI50,KM-20L2,2.11 µM (inactive)
same,GI50,A498,1.98 µM (inactive)
same,GI50,SNB-75,6.58 µM (inactive)
same,GI50,SK-MEL-5,1.71 µM (inactive)
same,GI50,HOP-18,6.82 µM (inactive)
same,GI50,SF-268,3.94 µM (inactive)
same,GI50,ACHN,2.24 µM (inactive)
same,GI50,NCI-H460,1.56 µM (inactive)
same,GI50,SF-295,1.59 µM (inactive)
same,GI50,SNB-19,4.28 µM (inactive)
same,GI50,NCI-H23,1.83 µM (inactive)
CCC1C[N+]23CCc4c([nH]c5ccccc45)C2CC1CC3 (configuration not stated),GI50,UACC-257,50.1 µM (inactive)
same,GI50,HOP-92,82.6 µM (inactive)
same,GI50,EKVX,> 100 µM (inactive)
same,GI50,LXFL 529,33.8 µM (inactive)
same,GI50,DMS-114,53.5 µM (inactive)
same,GI50,NCI-H522,55.1 µM (inactive)
same,GI50,CCRF-CEM,51.2 µM (inactive)
same,GI50,SK-OV-3,> 100 µM (inactive)
same,GI50,SN12C,76.4 µM (inactive)
same,GI50,HCT-116,> 100 µM (inactive)
same,GI50,KM12,64.7 µM (inactive)
same,GI50,NCI-H226,45.9 µM (inactive)
same,GI50,RXF 393,> 100 µM (inactive)
same,GI50,TK-10,74.3 µM (inactive)
same,GI50,HCT-15,68.2 µM
same,GI50,RPMI-8226,38.8 µM (inactive)
same,GI50,LOX IMVI,68.1 µM (inactive)
same,GI50,HT-29,> 100 µM (inactive)
same,GI50,U-251,98.6 µM (inactive)
same,GI50,DLD-1,76 µM (inactive)
same,GI50,COLO 205,98.4 µM (inactive)
same,GI50,SK-MEL-28,> 100 µM (inactive)
same,GI50,UO-31,41.4 µM (inactive)
same,GI50,M19-MEL,52.5 µM (inactive)
same,GI50,SW-620,> 100 µM (inactive)
same,GI50,HOP-62,> 100 µM (inactive)
same,GI50,IGROV-1,91.6 µM (inactive)
same,GI50,OVCAR-8,81.3 µM (inactive)
same,GI50,UACC-62,> 100 µM (inactive)
same,GI50,DMS-273,55.5 µM (inactive)
same,GI50,OVCAR-3,55.5 µM (inactive)
same,GI50,XF498,42.9 µM (inactive)
same,GI50,MOLT-4,29.8 µM (inactive)
same,GI50,OVCAR-5,> 100 µM (inactive)
same,GI50,K562,70.8 µM (inactive)
same,GI50,Malme-3M,33.7 µM (inactive)
same,GI50,SR,39.3 µM (inactive)
same,GI50,SK-MEL-2,> 100 µM (inactive)
same,GI50,M14,> 100 µM (inactive)
same,GI50,OVCAR-4,81.5 µM (inactive)
same,GI50,KM-20L2,97.1 µM (inactive)
same,GI50,HCC 2998,> 100 µM (inactive)
same,GI50,SNB-75,98.9 µM (inactive)
same,GI50,SK-MEL-5,22.4 µM (inactive)
same,GI50,SF-268,> 100 µM (inactive)
same,GI50,ACHN,> 100 µM (inactive)
same,GI50,NCI-H460,49.4 µM (inactive)
same,GI50,SF-295,> 100 µM (inactive)
same,GI50,CAKI-1,49.1 µM (inactive)
same,GI50,NCI-H23,69.2 µM (inactive)
